The values that follow come from PubChem BioAssay (NCI).

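How tested: cells in 96-well plates exposed to compound for 48 hours at five concentrations. TGI is the concentration that stops growth completely.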 Bounds are passed on as bounds.

Experiment in all cases: NCI tumour cell line growth inhibition, 48 h
Assay [1] relates to CAKI-1 renal.
The subject of assay [2] is EKVX NSCLC.
Assay [3] relates to HCT-15 colon.
For assay [4], the system named is HOP-62 NSCLC.
Assay [5] relates to IGROV1 ovarian.
Assay [6] concerns M14 melanoma.
Assay [7] relates to MALME-3M melanoma.
The subject of assay [8] is MDA-N.
Assay [9] relates to MOLT-4 leukemia.
Assay [10] has as its system NCI-H522 lung.
Assay [11] concerns OVCAR-4 ovarian.
The test system of assay [12] is RXF 393 renal.
Assay [13] relates to SF-539 CNS.
Assay [14] relates to SK-OV-3 ovarian.
Assay [15] has as its system SNB-75 CNS.
Assay [16] relates to TK-10 renal.
In assay [17] the test system is UACC-62 melanoma.
The subject of assay [18] is UO-31 renal.
Assay [19] relates to HL-60(TB) leukemia.

Take `COc1ccc2nc(-c3ccc(O)cc3)cn2c1`: the TGI in assay [1], in [2], in assay [3], in assay [4], in assay [5] and in assay [6] was greater than 100 µM in each case. For the same compound, the TGI in [7], in [8], in [9], in [10], in assay [11] and in assay [12] was greater than 100 µM each time. The TGI was greater than 100 µM in [13]; greater than 100 µM in assay [14]; greater than 100 µM in assay [15]; greater than 100 µM in [16]; 86.2 µM in assay [17]; greater than 100 µM in [18].
As to `COc1ccc(N2C(=O)CC(c3c[nH]c4ccccc34)C2=O)cc1` (stereo not drawn), the TGI in [1], in assay [2], in assay [3], in assay [19], in [4] and in assay [5] was greater than 100 µM in each case. Moreover, the TGI in assay [6], in [7], in assay [8], in assay [9], in assay [12] and in [13] was greater than 100 µM each time. Besides, the TGI in assay [14], in assay [16], in assay [17] and in assay [18] was greater than 100 µM throughout.
Turning to `Cc1ccc2cccc(OC(=O)c3cc4c(cc3Cl)Sc3nccn3S4(=O)=O)c2n1`, the TGI was greater than 79.9 µM in assay [1]; 48 µM in [2]; 29 µM in assay [3]; 19.4 µM in [4]; 17.5 µM in assay [5]; 25.7 µM in [6]. Moreover, the TGI in assay [7] is 47.4 µM; in assay [8] it was greater than 96 µM; in assay [9], 19.8 µM; in assay [10], 38 µM; in [11], 25.1 µM; in assay [12] it was 20.5 µM. The TGI in [13] is 17.2 µM; in [14], 84.2 µM; in assay [15], 39.6 µM; in assay [16] it was 30.9 µM; in [17] it was 32.6 µM; in assay [18] it was 30.6 µM.
As to `C/C(=C\[C@H]1C[C@@H]([C@@H]2CC[C@]34C[C@]23C=C[C@@H]2[C@@]3(C)CC=C5C[C@@H](c6ccccc6)OC[C@]5(C)[C@@H]3C[C@@H](O)[C@]24C)C(=O)O1)CO`, the TGI in [1] was 28.3 µM; in [2], greater than 52 µM; in assay [3] it was 25.3 µM; in [4] it was greater than 100 µM; in assay [5], 20.5 µM; in [6], greater than 100 µM. Further, the TGI was 82.5 µM in [7]; 13.2 µM in assay [8]; greater than 100 µM in assay [9]; 89.3 µM in assay [10]; greater than 62.7 µM in assay [11]; greater than 100 µM in assay [12]. Besides, the TGI in assay [13] was 35.1 µM; in assay [14], greater than 61.8 µM; in [15], 92 µM; in assay [16] it was greater than 56 µM; in [17] it was greater than 71.2 µM; in assay [18] it was 9.54 µM.
As for `N=c1c2ccccc2nc2oc3ccc(Cl)cc3n12`, the TGI in [1] was 37.5 µM; in [2], greater than 100 µM; in assay [3], greater than 100 µM; in assay [4] it was 19.2 µM; in assay [5] it was 69.8 µM; in [6], 56.9 µM. The TGI in [7] is 40.1 µM; in [8] it was greater than 100 µM; in assay [9], greater than 100 µM; in assay [10], 53.1 µM; in assay [11], 13.1 µM; in [12] it was 26.1 µM. In addition, the TGI was 32 µM in assay [13]; 46.2 µM in assay [14]; 23.6 µM in assay [15]; 34.9 µM in assay [16]; greater than 100 µM in assay [17]; 32.9 µM in assay [18].
Take `CC(=O)OCC(OC(C)=O)C(OC(C)=O)C(OC(C)=O)C(/C=N\Nc1nc2ccccc2c(=O)[nH]1)OC(C)=O` (stereo not drawn): the TGI in assay [1], in assay [2], in assay [3], in assay [19], in assay [4] and in assay [6] was greater than 100 µM throughout. Besides, the TGI in assay [7], in [8], in assay [9], in assay [10], in assay [12] and in assay [13] was greater than 100 µM throughout. For the same compound, the TGI in [14], in assay [15], in [17] and in assay [18] was greater than 100 µM in each case.
Consider `Cc1ccc(OCCn2cc(Nc3ccccc3)c(=O)[nH]c2=O)cc1`, for which the TGI in assay [1], in assay [2], in [3], in [5], in [6] and in assay [7] was greater than 100 µM each time. Also, the TGI in [8], in assay [9], in assay [10], in assay [11], in assay [12] and in [13] was greater than 100 µM in each case. Moreover, the TGI in assay [15], in assay [16], in [17] and in assay [18] was greater than 100 µM each time.
As for `O=C(O)C1CCCN1Cc1ccc2c(c1)OCO2` (stereo not drawn), the TGI in assay [1], in [2], in assay [3], in assay [4], in [5] and in assay [6] was greater than 100 µM in each case. Besides, the TGI in assay [7], in [8], in assay [9], in assay [10], in assay [11] and in assay [12] was greater than 100 µM in each case. Also, the TGI in [13], in assay [14], in assay [15], in [16], in assay [17] and in assay [18] was greater than 100 µM throughout.
